Results on 29 molecules are retold here after patent publication US6455587B1 (priority 2000, dated 2002).

In general, Ki refers to a measure of affinity in units of concentration, obtained from inhibition or displacement.

The target of one assay is T1, recombinant HIV-1 protease (Human immunodeficiency virus type 1 group M subtype B, UniProt P04585).
T1 construct: recombinant HIV-1 protease (final concentration 2.18 nM) purchased from Bachem Bioscience; purchased Bachem Bioscience
Briefly: Enzymatic fluorometric (FRET) assay for determining the inhibition constant (Ki) against HIV protease. Format: biochemical. As to conditions: Ki (nM). An excerpt:
An Enzymatic assay for determining the inhibition constant (Ki) of synthetic compounds targeting the HIV protease may be carried out as follows: This is a fluorometric assay based on the cleavage by protease of a substrate carrying a donor group (EDANS) and an acceptor group (DABCYL) on each side of the cleavage site, interacting together through fluorescence resonance energy transfer (FRET). Cleavage of the substrate by protease stops energy exchange between the two groups, resulting in a time-dependent increase in fluorescence intensity that is linearly related to the extent of substrate hydrolysis.
The enzymatic assay is done at 31° C. in white 96-well fluorescence microplates, in a total volume of 200 μL per well. The apparatus used for analysis is a FL600 fluorescence microplate reader (Biotek Instruments). […] Excitation of the fluorophore is done at 340 nm and emission at 485 nm is recorded continuously during the reaction, allowing determination of the enzyme's initial velocity (v0). At the end of the 4 min incubation, the potential inhibitor at a defined concentration in a volume of 4 μL is added to the reaction, and fluorescence readings are taken for another 4 min, allowing determination of enzyme velocity (vi) in the presence of the inhibitory compound. Several concentrations of the putative inhibitors are tested in the assay. After calculation of v0 and vi, the inhibition constant (Ki) of the compound is determined using the equation of Henderson: [formula]
and [I]=inhibitor concentration, [S]=substrate concentration,
Km=Michaelis-Menten constant, Kiapp=apparent Ki
Graphs are traced and the Ki determined using GraphPad Prism software v. 3.0.
Consider `Cc1ccc(S(=O)(=O)N(CC(C)C)C(CCCCNC(=O)OCC2c3ccccc3-c3ccccc32)C(=O)O)cc1` (racemic) [Compound 2, Nα-Isobutyl-Nα-(4-methylbenzenesulfonyl)-Nε-(9-fluorenylmethoxycarbonyl)-DL-lysine], for which the Ki was determined as 5 nM.
Consider `CC(C)CN([C@@H](CCCCNC(=O)OCC1c2ccccc2-c2ccccc21)C(=O)O)S(=O)(=O)c1ccc(C(C)(C)C)cc1` [Compound 10, Nα-Isobutyl-Nα-(4-tert-butylbenzenesulfonyl)-Nε-(9-fluorenylmethoxycarbonyl)-L-lysine], for which the Ki turned out to be 257 nM.

The assay is the same for the next values; noted with them: fluorometric FRET assay, 31° C., pH 4.7, recombinant HIV-1 protease 2.18 nM, substrate 10 μM; read-out: Ki.
Consider `Cc1ccc(S(=O)(=O)N(CC(C)C)[C@@H](CCCCNC(=O)COc2ccccc2)C(=O)O)cc1` [Compound 203, Nα-Isobutyl-Nα-(4-methylbenzenesulfonyl)-Nε-phenoxyacetyl-L-lysine], for which the Ki came out at 17.5 nM.

Staying with this assay, now noted: fluorometric FRET assay, recombinant HIV-1 protease, pH 4.7, 31° C.; read-out: Ki.
Turning to `O=C(N[C@@H](CCCCNS(=O)(=O)c1cccc(C(F)(F)F)c1)C(=O)O)OCC1c2ccccc2-c2ccccc21` [Compound 34, Nε-(3-Trifluoromethylbenzenesulfonyl)-Nα-(9-fluorenylmethoxycarbonyl)-L-lysine], the Ki was found to be 22000 nM.
`O=C(NCCC[C@H](NC(=O)OCC1c2ccccc2-c2ccccc21)C(=O)O)OCC1c2ccccc2-c2ccccc21` [Compound 73, Nα,Nδ-di-(9-Fluorenylmethoxycarbonyl)-L-ornithine]: the inhibitory constant (Ki) is 1300 nM.
Take `O=C(N[C@@H](CCCCNS(=O)(=O)c1ccccc1)C(=O)O)OCC1c2ccccc2-c2ccccc21` [Compound 49, Nε-Benzenesulfonyl-Nα-(9-fluorenylmethoxycarbonyl)-L-lysine]: the Ki came to 8900 nM.
On to `Cc1ccc(S(=O)(=O)N(CC(C)C)[C@@H](CCCCNC(=O)/C=C/c2ccccc2)C(=O)O)cc1` [Compound 90], for which the Ki was found to be 747 nM.
Take “Nα, Nε-diisobutyl-Nα-(4-methylbenzenesulfonyl)-Nε-(3-phenylpropanoyl)-DL-lysine [Compound 159]”: the Ki was 28000 nM.
As to “Nα,Nδ-di-(4-Bromobenzenesulfonyl)-Nδ-(4-fluorobenzyl)-L-ornithine [Compound 59]”, the Ki was above 200 nM.
For `O=C(NCCCC[C@H](NS(=O)(=O)c1ccc(Br)cc1)C(=O)O)OCC1c2ccccc2-c2ccccc21` [Compound 66, Nα-(4-Bromobenzenesulfonyl)-Nε-(9-fluorenylmethoxycarbonyl)-L-lysine], the Ki worked out at 1900 nM.
On to `COc1ccccc1/C=C\C(=O)NCCCC[C@@H](C(=O)O)N(CC(C)C)S(=O)(=O)c1ccc([N+](=O)[O-])cc1` [Compound 186, Nα-Isobutyl-Nα-(4-nitrobenzenesulfonyl)-Nε-(cis-2-methoxycinnamoyl)-L-lysine], for which the Ki is 39.8 nM.
For “Nα-Isobutyl-Nα-(4-aminobenzenesulfonyl)-Nε-(4-methoxydihydrocinnamoyl)-L-lysine [Compound 120]”, the Ki turned out to be 21.7 nM.
As to “Nα-Isobutyl-Nα-(4-nitrobenzenesulfonyl)-Nε-(4-nitrocinnamoyl)-L-lysine [Compound 111]”, the Ki worked out at 33 nM.
In the case of `O=C(N[C@@H](CCCCNS(=O)(=O)c1ccc(Br)cc1)C(=O)O)C1c2ccccc2-c2ccccc21` [Compound 38, Nα-(9-Fluorenecarbonyl)-Nε-(4-bromobenzenesulfonyl)-L-lysine], the Ki was 4700 nM.
With `CC(C)CN([C@@H](CCCCNC(=O)CCc1c[nH]c2ccccc12)C(=O)O)S(=O)(=O)c1ccc(N)cc1` [Compound 98, Nα-Isobutyl-Nα-(4-aminobenzenesulfonyl)-Nε-(3-indolepropionyl)-L-lysine], the Ki is 10.1 nM.
Same read-out and setting: next, `O=C(Cc1c[nH]c2ccccc12)N[C@@H](CCCCNS(=O)(=O)c1ccc(Br)cc1)C(=O)O` [Compound 29, Nα-(3-Indoleacetyl)-Nε-(4-bromobenzenesulfonyl)-L-lysine]: 10500 nM; `CC(C)CN([C@@H](CCCCNC(=O)CCc1ccccc1)C(=O)O)S(=O)(=O)c1ccc([N+](=O)[O-])cc1` [Compound 94, Nα-Isobutyl-Nα-(4-nitrobenzenesulfonyl)-Nε-dihydrocinnamoyl-L-lysine]: 33.9 nM; `CC1(C)[C@@H]2CC[C@@]1(CS(=O)(=O)NCCCC[C@H](NC(=O)OCC1c3ccccc3-c3ccccc31)C(=O)O)C(=O)C2` [Compound 35, Nε-(1S)-(10-Camphorsulfonyl)-Nα-(9-fluorenylmethoxycarbonyl)-L-lysine]: 33000 nM.
Regarding “Nα-Isobutyl-Nα-(4-aminobenzenesulfonyl)-Nε-(3,4-methylenedioxydihydrocinnamoyl)-L-lysine [Compound 155]”, the Ki was above 300 nM.
For “Nα-Isobutyl-Nα-(4-iodobenzenesulfonyl)-Nε-benzyloxycarbonyl-DL-lysine [Compound 48]”, the Ki is above 100 nM.
For the molecule `COc1cccc(C=CC(=O)NCCCC[C@@H](C(=O)O)N(CC(C)C)S(=O)(=O)c2ccc([N+](=O)[O-])cc2)c1` [Compound 162, Nα-Isobutyl-Nα-(4-nitrobenzenesulfonyl)-Nε-(3-methoxycinnamoyl)-L-lysine], the Ki was above 300 nM.
For `COc1ccc(C=CC(=O)NCCCC[C@@H](C(=O)O)N(CC(C)C)S(=O)(=O)c2ccc([N+](=O)[O-])cc2)cc1` [Compound 113, Nα-Isobutyl-Nα-(4-nitrobenzenesulfonyl)-Nε-(4-methoxycinnamoyl)-L-lysine], the Ki is above 300 nM.
For the molecule `Nc1ccc(S(=O)(=O)N[C@@H](CCCCNC(=O)OCC2c3ccccc3-c3ccccc32)C(=O)O)cc1` [Compound 106, Nα-(4-Aminobenzenesulfonyl)-Nε-(9-fluorenylmethoxycarbonyl)-L-lysine], the Ki was 4490 nM.
For the molecule `CC(C)CN([C@@H](CCCCNS(=O)(=O)Cc1ccccc1)C(=O)O)S(=O)(=O)c1ccc([N+](=O)[O-])cc1` [Compound 115, Nα-Isobutyl-Nα-(4-nitrobenzenesulfonyl)-Nε-benzylsulfonyl-L-lysine], the Ki was above 300 nM.
With `O=C(N[C@H](CO)CCCCNS(=O)(=O)c1ccc(Br)cc1)OCC1c2ccccc2-c2ccccc21` [Compound 22, (2S)-(9-Fluorenylmethoxycarbonylamino)-6-(4-bromobenzenesulfonylamino)-1-hexanol], the Ki is above 6000 nM.
As to “Nα-Isobutyl-Nα-(4-nitrobenzenesulfonyl)-Nε-phenylthioacetyl-L-lysine [Compound 154]”, the Ki came out at 10.2 nM.
As for `COC(=O)[C@H](CCCCNS(=O)(=O)c1ccc(Br)cc1)NC(=O)OCC1c2ccccc2-c2ccccc21` [Compound 15, Nα-(9-Fluorenylmethoxycarbonyl)-Nε-(4-bromobenzenesulfonyl)-L-lysine Methyl Ester], the Ki was found to be 47000 nM.
Turning to `CC(C)CN([C@@H](CCCCNC(=O)CCc1cccc(N)c1)C(=O)O)S(=O)(=O)c1ccc(N)cc1` [Compound 118, Nα-Isobutyl-Nα-(4-aminobenzenesulfonyl)-Nε-(3-aminodihydrocinnamoyl)-L-lysine], the Ki came out at 20.5 nM.
Consider `Cc1ccc(S(=O)(=O)NCCC[C@H](NC(=O)OCC2c3ccccc3-c3ccccc32)C(=O)O)cc1` [Compound 149, Nδ-(4-Methylbenzenesulfonyl)-Nα-(9-fluorenylmethoxycarbonyl)-L-ornithine], for which the Ki came to 10100 nM.
